The values that follow come from patent US8475940B2, “Anthracene derivative and light-emitting device” (Toppan Printing Co., Ltd., priority 2009, dated 2013).

Values joined by “and” are separate entries in the source; they are usually repeats but may differ in a detail not shown here. Identical values can stand only once.

The conditions of data set [1]: background section, DSC; cited from earlier work.
A short description of data set [2]: Optical deterioration of fluorescent intensity of film under 340 nm irradiation. In kind it is physicochemical. To be noted: irradiated with 340 nm light for 1,000 sec, slit 1.5 nm. Here is the method: A film of the ink was formed on an ITO transparent electroconductive glass by spin coating and the fluorescent spectrum intensity was measured by a fluorophotometer (trade name: RF-5300PC, manufactured by Shimadzu Corporation) at an excitation spectrum of 340 nm.
Using a fluorophotometer (trade name: RF-5300PC, manufactured by Shimadzu Corporation) wherein the width of the slit for excitation light was changed to 1.5 nm, this light emitting film was successively irradiated with light having a wavelength of 340 nm for 1,000 sec, with the result that a single film of the isomer component 1 of the compound 2 was decreased in fluorescent intensity to 57% of the initial intensity and the single film of BTrSBF was decreased to 64% of the initial intensity whereas the film obtained by doping BTrSBF with 5 wt % of the compound 2 kept 74% of the initial intensity, showing that this film had the effect of suppressing the optical deterioration of fluorescent intensity.

The nature of data set [3]: Solubility in toluene / organic solvents at ambient temperature. In kind it is physicochemical. The settings on record: for solubility in organic solvents: aromatic solvents such as xylene, anisole, tetralin; for solubility (concentration dissolved in toluene): ambient temperature. The protocol:
The compound 1 was dissolved with a concentration of 1.3 mg in 1 ml of toluene at ambient temperature and used as a light-emitting dopant for a blue light-emitting layer ink, which could be applied to form a film.
The isomer component 1 of compound 2 was dissolved in a concentration of 34 mg in 1 ml of toluene at ambient temperature and used for ink that formed each layer of an organic EL as a carrier transport layer, each color light-emitting host and light-emitting dopant, thereby enabling the formation of a coating film.
The compound 3 was dissolved in a concentration of 150 mg in 1 ml of toluene at ambient temperature and used for ink that formed each layer of an organic EL as a carrier transport layer, each color light-emitting host, or blue light-emitting dopant, thereby enabling the formation of a coating film.
Further, the compound 31 can be dissolved in various mixture solvents to be matched with the viscosities of various printing systems.
The compound 32 was soluble in a concentration of 6 mg in 1 ml of toluene at ambient temperature. When the compound 32 was gradually added to dissolve while heating on a hot plate, 34 mg of the compound 32 was dissolved when the temperature was returned to ambient temperature. The compound 32 can be used as an electron transportable carrier transport material and may be dissolved in an organic solvent such as toluene, xylene, anisole, and tetralin to add the obtained solution to ink for forming each layer of an organic EL, thereby forming a coating film.

Data set [4] can be described thus: Thermal analysis by DSC (glass transition temperature). In kind it is physicochemical. The settings on record: for thermal stability: second heatup after rapid cooling, no exothermic or endothermic peak except Tg. The protocol: The glass transition temperature (Tg), crystallization temperature (Tc), and melting point (Tm) of the compound 1 were measured by EXSTAR6000 Series DSC6200 manufactured by Seiko Instruments Inc., at a temperature rise rate of 20° C./min. […] Tm was 493° C. to 513° C. (peak 504° C.).
The glass transition temperature (Tg), crystallization temperature (Tc), and melting point (Tm) of the isomer component 1 of the compound 2 were measured by an EXSTAR6000Series DSC6200 manufactured by Seiko Instruments Inc., at a temperature rise rate of 20° C./min.
The Tg, Tc, and Tm of the compound 33 measured by DSC were 240° C., 323° C., and 403° C. respectively.

Data set [5] can be described thus: Energy level: ionization potential of spin coat film by surface analyzer AC-1, electron affinity by subtracting absorption-edge energy. It is filed as physicochemical. The settings on record: for Eg: energy difference between ionization potential and electron affinity; for electron affinity: ionization potential minus absorption-edge energy; for ionization potential: spin coat film on ITO glass, surface analyzer AC-1. The protocol: A solution prepared by dissolving 1.3 mg of the compound 1 in 1 ml of toluene was applied to an ITO transparent electroconductive glass by spin coating to measure the ionization potential by a surface analyzer AC-1 manufactured by Riken Keiki Co., Ltd., to find that the ionization potential was 5.9 eV.
A solution prepared by dissolving 10 mg of the isomer component 1 of the compound 2 in 1 ml of toluene was applied to an ITO transparent electroconductive glass by spin coating to measure the ionization potential by a surface analyzer AC-1 manufactured by Riken Keiki Co., Ltd., to find that the ionization potential was 5.9 eV.
A solution prepared by dissolving 10 mg of the compound 1 in 1 ml of toluene was applied to an ITO transparent electroconductive glass by spin coating to measure the ionization potential by a surface analyzer AC-1 manufactured by Riken Keiki Co., Ltd., to find that the ionization potential was 5.9 eV. The electron affinity obtained by subtracting the absorption-edge energy from the ionization potential was 3.0 eV.
A solution prepared by dissolving 10 mg of the compound 31 in 1 ml of toluene was applied to an ITO transparent electroconductive glass by spin coating to measure the ionization potential by a surface analyzer AC-1 manufactured by Riken Keiki Co., Ltd., to find that the ionization potential was 6.2 eV. The electron affinity obtained by subtracting absorption-edge energy from the ionization potential was 3.0 eV.
A solution prepared by dissolving 10 mg of the compound 32 in 1 ml of toluene was applied to an ITO transparent electroconductive glass by spin coating to measure the ionization potential by a surface analyzer AC-1 manufactured by Riken Keiki Co., Ltd., to find that the ionization potential was 6.2 eV. The electron affinity obtained by subtracting absorption-edge energy from the ionization potential was 3.0 eV.

The nature of data set [6]: Fluorescent spectrum of spin coat film (fluorophotometer RF-5300PC). In kind it is physicochemical. The settings on record: for fluorescent peak wavelength: single-compound spin coat film on ITO transparent electroconductive glass, excitation 330-340 nm. Here is the method:
The fluorescent spectrum of a spin coat film of the compound 31 on an ITO transparent electroconductive glass was measured. The results correspond to a graph (0 wt %) of FIG. 8. The measurement was made by a fluorophotometer (trade name: RF-5300PC, manufactured by Shimadzu Corporation). The compound 31 emitted blue light having a fluorescent peak wavelength of 422 nm.
First, a fluorescent spectrum obtained when a film formed in a thickness of 41 nm by applying a solution of the compound 32 to the surface of an ITO transparent electroconductive glass by spin coating was excited by 340 nm light was obtained (solid line in FIG. 10). The measurement was made by a fluorophotometer (trade name: RF-5300PC, manufactured by Shimadzu Corporation). Blue light emission having a fluorescent peak wavelength of 424 nm was obtained.
A fluorescent spectrum obtained when a film was formed in the same manner as above by doping the compound 32 with 5 wt % of the compound 2 was measured in the same manner as above. The results are shown by the dotted line in FIG. 10. The fluorescent peak wavelength was 453 nm and pure blue light emission was obtained which was more intensified than the case where the compound 32 was not doped with the compound 2.
Xylene solutions containing only the compound 31, only the compound 33, and a mixture of the compound 31:compound 33:compound 3 (10:2:1 ratio by weight) such that each solid content was 2 wt % were respectively applied to a quarts plate by spin coating (rotated at 500 rpm for 5 sec and then at 1200 rpm for 60 sec) to form films having almost the same thickness, thereby measuring a fluorescent spectrum.

`CC(C)(C)c1ccc2c(-c3ccc4ccccc4c3)c3ccccc3c(-c3ccc4ccccc4c3)c2c1` [TBDNA, 9,10-di(2-naphthyl)-2-tertiarybutylanthracene]: the “glass transition temperature (Tg) of prior-art material” value in data set [1] was “about 128 °C”.

As for `CC(C)(C)c1ccc(-c2nc(-c3ccc(-c4ccc5c(c4)C4(c6ccccc6-5)c5ccccc5-c5ccc(-c6ccc(-c7nc(-c8ccc(C(C)(C)C)cc8)nc(-c8ccc(C(C)(C)C)cc8)n7)cc6)cc54)cc3)nc(-c3ccc(C(C)(C)C)cc3)n2)cc1` [compound 31, 2,2′-bis(4-(2,4-bis(4-tert-butylphenyl)-1,3,5-triazine-6-yl)phenyl)-9,9′-spirobifluorene], the fluorescent intensity remaining in data set [2] is 64 % of the initial intensity. In addition, in data set [3] (toluene), the “solubility in organic solvents” value was “easily soluble” and the “solubility (concentration dissolved in toluene)” value is listed as 0.4 g in 1 ml. Further, the “thermal stability” value in data set [4] is on record as “thermally stable glass-like material”. Further, in data set [5], the Eg is recorded as 3.2 eV, the electron affinity is recorded as 3.0 eV and the ionization potential stood at 6.2 eV. The fluorescent peak wavelength in data set [6] is listed as 422 nm.

Take `CC(C)(C)c1ccc(-c2nc(-c3ccc(-c4ccccc4-c4c5ccccc5c(-c5ccccc5-c5ccc(-c6nc(-c7ccc(C(C)(C)C)cc7)nc(-c7ccc(C(C)(C)C)cc7)n6)cc5)c5cc(C(C)(C)C)ccc45)cc3)nc(-c3ccc(C(C)(C)C)cc3)n2)cc1` [compound 3, 2-tert-butyl-9,10-bis{4-[2,4-bis(4-tert-butylphenyl)-1,3,5-triazine-6-yl]biphenyl-2′-yl}anthracene]: in data set [3] (toluene), the “solubility (concentration dissolved in toluene)” value was 150 mg in 1 ml. Moreover, in data set [4], the “thermal stability” value is given as “thermally very stable”. In addition, the fluorescent peak wavelength in data set [6] was found to be 453 nm.

For the compound `CC(C)(C)c1ccc2c(c1)c1cc(C(C)(C)C)ccc1n2-c1ccc(-c2cc(-c3ccc(-n4c5ccc(C(C)(C)C)cc5c5cc(C(C)(C)C)ccc54)cc3)cc(-c3ccc(-n4c5ccc(C(C)(C)C)cc5c5cc(C(C)(C)C)ccc54)cc3)c2)cc1` [compound 33, 1,3,5-tris(4-(3,6-di-tert-butyl-N-carbazolyl)phenyl)benzene], the “solubility in organic solvents” value in data set [3] (toluene) is “easily soluble”. Further, the “amount dissolved in general organic solvent” value in data set [3] (toluene, xylene, tetralin or mixture solvent) is on record as ≥ 10 wt %. The “glass transition temperature (Tg)” value in data set [4] (DSC, temperature rise rate 20° C./min) worked out at 240 °C. Further, in data set [5], the electron affinity worked out at 2.8 eV and the ionization potential is 6.2 eV. The fluorescent peak in data set [6] (spin coat film from xylene solution on quartz plate) was found to be 380 nm.

Take `CC(C)(C)c1ccc(-c2nc(-c3ccc(-c4ccccc4-c4c5ccccc5c(-c5ccccc5-c5ccc(-c6nc(-c7ccc(C(C)(C)C)cc7)nc(-c7ccc(C(C)(C)C)cc7)n6)cc5)c5ccccc45)cc3)nc(-c3ccc(C(C)(C)C)cc3)n2)cc1` [compound 1, 9,10-bis{4-[2,4-bis(4-tert-butylphenyl)-1,3,5-triazine-6-yl]biphenyl-2′-yl}anthracene]: the “solubility (concentration dissolved in toluene)” value in data set [3] (toluene) is recorded as 1.3 mg in 1 ml. Further, in data set [5], the electron affinity is 2.9 eV and 3.0 eV; the ionization potential is 5.9 eV. The fluorescent peak wavelength in data set [6] stood at 448 nm.

Regarding `CC(C)(C)c1ccc2c(-c3ccccc3-c3ccccc3)c3ccccc3c(-c3ccccc3-c3ccccc3)c2c1` [TBBPA, 9,10-di(biphenyl-2-yl)-2-t-butylanthracene], the “glass transition temperature (Tg) of prior-art material” value in data set [1] is “about 74 °C”.

With `Cc1ccc2c(-c3ccccc3-c3ccc(-c4nc(-c5ccc(C(C)(C)C)cc5)nc(-c5ccc(C(C)(C)C)cc5)n4)cc3)c3ccccc3c(-c3ccccc3-c3ccc(-c4nc(-c5ccc(C(C)(C)C)cc5)nc(-c5ccc(C(C)(C)C)cc5)n4)cc3)c2c1` [compound 2, 2-methyl-9,10-bis{4-[2,4-bis(4-tert-butylphenyl)-1,3,5-triazine-6-yl]biphenyl-2′-yl}anthracene], in data set [5], the Eg result is given as “about 2.9 eV”. For the same compound, the fluorescent peak wavelength in data set [6] came out at 454 nm.

Take `Cc1ccc2c(-c3ccccc3-c3ccc(-c4nc(-c5ccc(C(C)(C)C)cc5)nc(-c5ccc(C(C)(C)C)cc5)n4)cc3)c3ccccc3c(-c3ccccc3-c3ccc(-c4nc(-c5ccc(C(C)(C)C)cc5)nc(-c5ccc(C(C)(C)C)cc5)n4)cc3)c2c1` (single isomer, unassigned) [isomer component 1 of the compound 2, 2-methyl-9,10-bis{4-[2,4-bis(4-tert-butylphenyl)-1,3,5-triazine-6-yl]biphenyl-2′-yl}-anthracene]: the fluorescent intensity remaining in data set [2] is reported as 57 % of the initial intensity. The “solubility (concentration dissolved in toluene)” value in data set [3] (toluene) is on record as 34 mg in 1 ml. Moreover, the “thermal stability” value in data set [4] is on record as “thermally very stable”. In data set [5], this compound came in with an electron affinity of 2.9 eV and an ionization potential of 5.9 eV.

Turning to `Cc1ccc(-c2nc(-c3ccc(C)cc3)nc(-c3ccc(-c4ccc5c(c4)C4(c6ccccc6-5)c5ccccc5-c5ccc(-c6ccc(-c7nc(-c8ccc(C)cc8)nc(-c8ccc(C)cc8)n7)cc6)cc54)cc3)n2)cc1` [compound 32], the “amount dissolved after heating on a hot plate and return to ambient temperature” value in data set [3] (1 ml of toluene, gradually added while heating, returned to ambient temperature) is 34 mg. Further, the “solubility (concentration dissolved in toluene)” value in data set [3] (toluene) was found to be 6 mg in 1 ml. Besides, in data set [5], the electron affinity is 3.0 eV and the ionization potential amounted to 6.2 eV. Further, in data set [6], the fluorescent peak wavelength is given as 424 nm.
